Here are results for 2 compounds from PMC8213057, “Targeting ALK2: An Open Science Approach to Developing Therapeutics for the Treatment of Diffuse Intrinsic Pontine Glioma” (Journal of Medicinal Chemistry, 2020).

The target in experiment [1] is CYP2C8.
Experiment [2] has as its target T1, BRAF (Homo sapiens, UniProt P15056).
T1 construct: purchased Reaction Biology Corporation
Put plainly: 375-member kinase panel. In kind it is biochemical. To be noted: Run 1, Run 2; for % enzyme activity: 1 μM; for remaining activity at 1 µM: read-out: % enzyme activity, 1 μM.

The target of experiment [3] is CAMKK1 (Homo sapiens, UniProt Q8N5S9). The note with it: 1 μM; Run 1, Run 2.
Experiment [4] concerns the target CK1G3 (Homo sapiens, UniProt Q9Y6M4). The note with it: 1 μM; Run 1, Run 2.
For experiment [5], the target named is T2, LCK2/ICK (Homo sapiens, UniProt Q9UPZ9).
T2 sequence (Q9UPZ9 1-632): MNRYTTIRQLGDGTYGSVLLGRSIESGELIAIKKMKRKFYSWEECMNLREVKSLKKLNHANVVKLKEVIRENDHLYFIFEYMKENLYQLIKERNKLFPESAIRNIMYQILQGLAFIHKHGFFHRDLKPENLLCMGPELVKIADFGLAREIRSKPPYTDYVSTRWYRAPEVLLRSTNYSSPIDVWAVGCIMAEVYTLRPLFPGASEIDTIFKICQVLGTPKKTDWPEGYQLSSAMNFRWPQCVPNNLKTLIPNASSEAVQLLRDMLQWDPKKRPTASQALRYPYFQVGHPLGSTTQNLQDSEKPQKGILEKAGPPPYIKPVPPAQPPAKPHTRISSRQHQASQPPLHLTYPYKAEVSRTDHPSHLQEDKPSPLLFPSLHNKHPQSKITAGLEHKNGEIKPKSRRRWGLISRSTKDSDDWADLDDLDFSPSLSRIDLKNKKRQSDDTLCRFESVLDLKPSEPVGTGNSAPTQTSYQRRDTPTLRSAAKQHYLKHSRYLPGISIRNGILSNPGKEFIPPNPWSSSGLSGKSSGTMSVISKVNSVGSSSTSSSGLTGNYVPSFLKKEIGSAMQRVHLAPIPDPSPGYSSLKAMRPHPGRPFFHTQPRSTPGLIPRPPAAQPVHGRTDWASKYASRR
The note with it: 1 μM; Run 1, Run 2.

The target of experiment [6] is MLK3/MAP3K11 (Homo sapiens, UniProt Q16584). To be noted: 1 μM; Run 1, Run 2.
The target in experiment [7] is T3, MUSK (Homo sapiens, UniProt O15146).
T3 sequence (O15146 24-869): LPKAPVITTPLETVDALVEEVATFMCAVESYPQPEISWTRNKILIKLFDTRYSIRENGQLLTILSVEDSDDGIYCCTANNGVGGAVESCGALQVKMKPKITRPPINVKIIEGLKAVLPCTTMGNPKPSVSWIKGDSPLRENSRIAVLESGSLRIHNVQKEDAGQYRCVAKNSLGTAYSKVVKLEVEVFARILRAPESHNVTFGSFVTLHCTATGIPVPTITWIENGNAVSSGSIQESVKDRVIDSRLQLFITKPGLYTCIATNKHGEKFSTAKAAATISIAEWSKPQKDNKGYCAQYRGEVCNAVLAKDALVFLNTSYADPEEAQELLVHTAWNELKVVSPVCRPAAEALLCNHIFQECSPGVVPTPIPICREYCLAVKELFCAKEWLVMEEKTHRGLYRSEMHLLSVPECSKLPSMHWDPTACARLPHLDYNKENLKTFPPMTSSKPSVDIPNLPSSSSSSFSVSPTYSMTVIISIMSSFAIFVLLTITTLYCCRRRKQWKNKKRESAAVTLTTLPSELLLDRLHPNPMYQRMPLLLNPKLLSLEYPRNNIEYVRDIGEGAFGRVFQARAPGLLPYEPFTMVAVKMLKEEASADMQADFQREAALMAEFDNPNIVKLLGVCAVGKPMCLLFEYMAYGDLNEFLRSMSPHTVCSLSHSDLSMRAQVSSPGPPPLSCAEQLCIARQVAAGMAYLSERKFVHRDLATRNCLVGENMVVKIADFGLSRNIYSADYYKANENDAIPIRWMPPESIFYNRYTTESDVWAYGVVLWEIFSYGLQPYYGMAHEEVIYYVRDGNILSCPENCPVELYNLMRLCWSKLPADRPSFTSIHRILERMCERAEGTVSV
The note with it: 1 μM; Run 1, Run 2.

Experiment [8] deals with T4, PKCnu/PRKD3 (Homo sapiens, UniProt O94806).
T4 sequence (O94806 1-890): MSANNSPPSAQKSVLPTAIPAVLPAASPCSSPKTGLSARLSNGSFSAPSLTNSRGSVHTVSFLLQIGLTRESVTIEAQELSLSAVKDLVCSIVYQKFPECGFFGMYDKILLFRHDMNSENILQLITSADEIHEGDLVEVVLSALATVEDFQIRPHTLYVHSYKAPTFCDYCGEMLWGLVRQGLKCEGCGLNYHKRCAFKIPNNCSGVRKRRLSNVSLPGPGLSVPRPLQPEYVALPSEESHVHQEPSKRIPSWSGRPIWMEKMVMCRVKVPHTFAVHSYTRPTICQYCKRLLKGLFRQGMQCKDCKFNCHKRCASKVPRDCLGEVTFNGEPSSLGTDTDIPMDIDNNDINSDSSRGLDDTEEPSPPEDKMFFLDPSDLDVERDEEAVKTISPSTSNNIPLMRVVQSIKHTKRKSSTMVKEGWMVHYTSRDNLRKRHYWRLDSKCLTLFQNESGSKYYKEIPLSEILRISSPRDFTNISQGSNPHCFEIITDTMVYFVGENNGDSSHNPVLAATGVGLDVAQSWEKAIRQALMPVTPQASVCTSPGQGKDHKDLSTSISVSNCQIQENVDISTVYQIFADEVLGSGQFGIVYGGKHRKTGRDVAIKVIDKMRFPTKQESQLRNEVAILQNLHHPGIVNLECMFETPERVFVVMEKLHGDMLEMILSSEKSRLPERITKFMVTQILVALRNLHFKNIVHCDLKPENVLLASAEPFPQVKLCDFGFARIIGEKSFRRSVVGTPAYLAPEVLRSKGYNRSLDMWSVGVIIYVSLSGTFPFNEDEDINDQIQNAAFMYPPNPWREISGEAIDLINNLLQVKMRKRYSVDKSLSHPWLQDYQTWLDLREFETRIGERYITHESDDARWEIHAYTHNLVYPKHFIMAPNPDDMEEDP
To be noted: 1 μM; Run 1, Run 2.

For experiment [9], the target named is TESK1 (Homo sapiens, UniProt Q15569). To be noted: 1 μM; Run 1, Run 2.
For experiment [10], the target named is CDK4/cyclin D1 (Homo sapiens, UniProt P11802). Put plainly: biochemical. To be noted: read-out: % enzyme activity, 1 μM; Run 1, Run 2.
Experiment [11] concerns the target P38a/MAPK14 (Homo sapiens, UniProt Q16539). Put plainly: biochemical. The note with it: read-out: % enzyme activity, 1 μM; Run 1, Run 2.
For experiment [12], the target named is RET (Homo sapiens, UniProt P07949). Put plainly: biochemical. The note with it: read-out: % enzyme activity, 1 μM; Run 1, Run 2.
Sequence of RET (P07949 29-1114): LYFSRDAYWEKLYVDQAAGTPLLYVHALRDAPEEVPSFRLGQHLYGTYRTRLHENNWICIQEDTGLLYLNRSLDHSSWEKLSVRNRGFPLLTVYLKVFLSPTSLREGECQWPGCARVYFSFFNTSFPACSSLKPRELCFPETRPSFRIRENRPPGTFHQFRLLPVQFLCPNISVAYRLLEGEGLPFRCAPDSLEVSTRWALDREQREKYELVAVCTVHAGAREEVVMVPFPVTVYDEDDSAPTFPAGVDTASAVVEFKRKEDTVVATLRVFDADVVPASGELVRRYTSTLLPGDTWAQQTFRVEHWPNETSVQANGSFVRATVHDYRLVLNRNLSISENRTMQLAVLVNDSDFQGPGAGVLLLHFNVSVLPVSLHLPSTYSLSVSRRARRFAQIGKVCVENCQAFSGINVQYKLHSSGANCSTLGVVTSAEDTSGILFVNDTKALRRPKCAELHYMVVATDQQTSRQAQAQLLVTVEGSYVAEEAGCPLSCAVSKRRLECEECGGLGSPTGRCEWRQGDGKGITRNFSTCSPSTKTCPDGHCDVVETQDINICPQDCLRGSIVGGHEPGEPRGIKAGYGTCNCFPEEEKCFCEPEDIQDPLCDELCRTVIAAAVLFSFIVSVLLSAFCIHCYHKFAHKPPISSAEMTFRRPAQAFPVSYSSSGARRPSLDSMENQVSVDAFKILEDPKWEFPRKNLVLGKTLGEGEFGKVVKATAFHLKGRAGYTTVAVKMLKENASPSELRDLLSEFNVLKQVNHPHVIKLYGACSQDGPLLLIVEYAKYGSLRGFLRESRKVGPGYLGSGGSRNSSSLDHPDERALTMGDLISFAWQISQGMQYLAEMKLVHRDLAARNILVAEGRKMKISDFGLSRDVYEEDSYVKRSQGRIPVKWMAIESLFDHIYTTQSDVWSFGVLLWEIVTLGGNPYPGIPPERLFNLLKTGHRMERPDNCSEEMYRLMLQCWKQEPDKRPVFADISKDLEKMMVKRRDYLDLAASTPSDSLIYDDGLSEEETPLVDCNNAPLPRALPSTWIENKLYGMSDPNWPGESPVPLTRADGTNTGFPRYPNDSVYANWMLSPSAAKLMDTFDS

T1 sequence (P15056 whole entry): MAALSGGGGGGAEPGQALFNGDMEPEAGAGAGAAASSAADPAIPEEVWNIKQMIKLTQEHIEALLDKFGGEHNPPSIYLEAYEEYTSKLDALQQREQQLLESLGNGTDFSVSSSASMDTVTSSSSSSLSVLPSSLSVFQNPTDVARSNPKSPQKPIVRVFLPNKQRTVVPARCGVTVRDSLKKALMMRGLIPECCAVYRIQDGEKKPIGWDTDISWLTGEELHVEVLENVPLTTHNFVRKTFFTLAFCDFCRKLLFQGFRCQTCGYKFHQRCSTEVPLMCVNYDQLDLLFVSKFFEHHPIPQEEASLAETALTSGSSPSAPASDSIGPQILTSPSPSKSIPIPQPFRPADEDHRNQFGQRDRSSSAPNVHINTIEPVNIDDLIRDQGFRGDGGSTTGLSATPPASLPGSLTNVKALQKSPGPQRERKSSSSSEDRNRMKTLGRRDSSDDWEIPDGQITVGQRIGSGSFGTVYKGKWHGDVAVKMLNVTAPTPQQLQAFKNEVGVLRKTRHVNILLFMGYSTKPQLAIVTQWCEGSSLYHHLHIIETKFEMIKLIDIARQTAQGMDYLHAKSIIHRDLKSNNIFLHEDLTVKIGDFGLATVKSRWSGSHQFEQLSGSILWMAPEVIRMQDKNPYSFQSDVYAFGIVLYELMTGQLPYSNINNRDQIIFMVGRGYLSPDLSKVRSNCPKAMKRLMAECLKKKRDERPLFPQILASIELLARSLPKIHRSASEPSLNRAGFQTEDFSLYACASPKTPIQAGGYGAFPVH
Sequence of CK1G3 (Q9Y6M4 whole entry): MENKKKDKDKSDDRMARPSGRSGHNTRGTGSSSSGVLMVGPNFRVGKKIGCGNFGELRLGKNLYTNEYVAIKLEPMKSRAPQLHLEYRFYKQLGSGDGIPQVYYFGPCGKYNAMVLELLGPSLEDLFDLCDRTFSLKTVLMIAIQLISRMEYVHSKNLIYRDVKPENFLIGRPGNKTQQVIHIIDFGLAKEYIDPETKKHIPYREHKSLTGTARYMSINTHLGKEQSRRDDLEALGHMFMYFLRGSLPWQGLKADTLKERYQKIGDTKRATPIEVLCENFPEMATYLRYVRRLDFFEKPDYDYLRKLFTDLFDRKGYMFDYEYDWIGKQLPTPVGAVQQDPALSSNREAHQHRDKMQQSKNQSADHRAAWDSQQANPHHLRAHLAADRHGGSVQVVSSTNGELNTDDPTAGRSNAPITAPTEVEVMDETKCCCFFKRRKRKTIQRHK
Sequence of TESK1 (Q15569 whole entry): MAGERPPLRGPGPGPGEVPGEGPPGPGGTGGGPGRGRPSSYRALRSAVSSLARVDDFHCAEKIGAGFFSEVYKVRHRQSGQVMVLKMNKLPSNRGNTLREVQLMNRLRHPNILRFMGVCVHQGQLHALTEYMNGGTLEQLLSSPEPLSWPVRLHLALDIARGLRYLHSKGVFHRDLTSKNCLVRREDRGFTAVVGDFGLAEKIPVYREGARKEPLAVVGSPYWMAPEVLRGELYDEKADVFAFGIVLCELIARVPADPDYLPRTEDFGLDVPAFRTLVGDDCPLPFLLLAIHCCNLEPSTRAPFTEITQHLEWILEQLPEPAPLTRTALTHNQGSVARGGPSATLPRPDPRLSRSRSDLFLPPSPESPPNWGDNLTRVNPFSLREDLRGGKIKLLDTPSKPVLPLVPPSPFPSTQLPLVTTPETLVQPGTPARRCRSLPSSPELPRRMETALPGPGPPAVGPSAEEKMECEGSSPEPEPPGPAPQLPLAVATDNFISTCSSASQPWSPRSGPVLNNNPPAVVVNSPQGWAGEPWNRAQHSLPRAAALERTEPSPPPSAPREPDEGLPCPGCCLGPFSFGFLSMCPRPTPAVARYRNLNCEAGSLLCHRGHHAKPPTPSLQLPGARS
Sequence of MLK3/MAP3K11 (Q16584 whole entry): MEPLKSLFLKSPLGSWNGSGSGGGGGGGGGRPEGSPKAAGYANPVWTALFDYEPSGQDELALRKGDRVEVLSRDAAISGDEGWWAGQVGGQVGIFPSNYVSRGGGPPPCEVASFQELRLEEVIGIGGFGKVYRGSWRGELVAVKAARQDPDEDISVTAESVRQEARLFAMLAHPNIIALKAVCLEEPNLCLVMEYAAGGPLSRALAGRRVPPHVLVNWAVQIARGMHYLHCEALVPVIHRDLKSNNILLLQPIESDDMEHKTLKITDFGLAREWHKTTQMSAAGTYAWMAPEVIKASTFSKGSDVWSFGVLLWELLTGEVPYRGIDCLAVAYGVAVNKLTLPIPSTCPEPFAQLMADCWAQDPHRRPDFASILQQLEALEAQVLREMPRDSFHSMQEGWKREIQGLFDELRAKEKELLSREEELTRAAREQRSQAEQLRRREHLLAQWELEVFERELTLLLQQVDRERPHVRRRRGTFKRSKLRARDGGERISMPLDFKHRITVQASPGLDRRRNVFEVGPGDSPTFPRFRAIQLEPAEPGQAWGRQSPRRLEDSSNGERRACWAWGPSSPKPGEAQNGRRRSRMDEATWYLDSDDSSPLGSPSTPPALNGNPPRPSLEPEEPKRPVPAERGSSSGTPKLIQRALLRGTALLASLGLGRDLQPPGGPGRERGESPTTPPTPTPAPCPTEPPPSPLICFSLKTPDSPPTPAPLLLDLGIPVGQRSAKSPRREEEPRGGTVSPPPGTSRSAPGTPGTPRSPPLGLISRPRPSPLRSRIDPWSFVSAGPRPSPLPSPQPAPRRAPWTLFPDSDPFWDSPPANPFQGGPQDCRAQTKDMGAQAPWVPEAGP
Sequence of CDK4/cyclin D1 (P11802 whole entry): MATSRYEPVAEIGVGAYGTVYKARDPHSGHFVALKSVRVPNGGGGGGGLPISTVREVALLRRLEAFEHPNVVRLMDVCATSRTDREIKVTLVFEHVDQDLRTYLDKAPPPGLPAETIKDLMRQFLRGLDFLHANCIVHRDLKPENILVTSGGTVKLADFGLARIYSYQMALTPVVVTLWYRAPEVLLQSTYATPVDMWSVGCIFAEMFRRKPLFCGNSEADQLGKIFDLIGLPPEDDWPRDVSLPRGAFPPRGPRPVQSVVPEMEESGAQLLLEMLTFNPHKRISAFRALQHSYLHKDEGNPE
Sequence of CDK4/cyclin D1 (P24385 whole entry partner): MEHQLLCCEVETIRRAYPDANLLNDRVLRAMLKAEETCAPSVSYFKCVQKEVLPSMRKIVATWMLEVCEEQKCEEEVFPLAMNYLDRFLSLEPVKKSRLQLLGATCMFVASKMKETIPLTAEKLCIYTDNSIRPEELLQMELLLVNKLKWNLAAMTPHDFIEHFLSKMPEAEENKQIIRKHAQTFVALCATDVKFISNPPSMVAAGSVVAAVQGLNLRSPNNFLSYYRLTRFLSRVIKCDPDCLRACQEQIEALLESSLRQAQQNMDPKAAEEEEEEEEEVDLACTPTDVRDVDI
Sequence of CAMKK1 (Q8N5S9 whole entry): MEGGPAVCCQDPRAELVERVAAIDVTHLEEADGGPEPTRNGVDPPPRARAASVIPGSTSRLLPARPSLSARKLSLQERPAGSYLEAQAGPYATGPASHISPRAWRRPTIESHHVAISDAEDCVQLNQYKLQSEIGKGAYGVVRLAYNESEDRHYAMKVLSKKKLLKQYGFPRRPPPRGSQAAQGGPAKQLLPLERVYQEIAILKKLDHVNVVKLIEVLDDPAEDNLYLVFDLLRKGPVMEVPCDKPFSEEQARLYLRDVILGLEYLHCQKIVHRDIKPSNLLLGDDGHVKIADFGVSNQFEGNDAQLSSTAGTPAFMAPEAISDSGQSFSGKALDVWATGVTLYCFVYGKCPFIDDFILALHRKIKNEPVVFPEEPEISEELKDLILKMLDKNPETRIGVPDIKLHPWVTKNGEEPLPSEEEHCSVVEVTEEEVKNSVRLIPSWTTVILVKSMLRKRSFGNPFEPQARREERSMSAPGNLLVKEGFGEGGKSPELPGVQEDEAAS

In turn, `COc1cc(-c2cncc(-c3ccc(N4CCN(C)CC4)cc3)c2C)cc(F)c1C(N)=O` [Compound 26a, 2-Fluoro-6-methoxy-4-(4-methyl-5-(4-(4-methylpiperazin-1-yl)phenyl)pyridin-3-yl)benzamide] displayed a CYP inhibition in experiment [1] greater than 50 µM. The “% enzyme activity” value in [2] turned out to be 28.77%; in experiment [3], 92.05%; in [4] it was 64.87%; in experiment [5] it was 104.57%; in experiment [6] it was 99.32%; in experiment [7], 91.48%. Besides, the results for the “% enzyme activity” value in experiment [8] and in [9] were 83.26% and 108.88%, respectively. Besides, the remaining activity at 1 µM in experiment [2] was determined as 28.8%; in experiment [10], 99.4%; in [11] it was 92.7%; in experiment [12], 94.4%.

Compound `COc1cc(-c2cncc(-c3ccc(N4C[C@@H](C)N(C)[C@@H](C)C4)cc3)c2C)cc(F)c1C(N)=O` [Compound 26c, 2-Fluoro-6-methoxy-4-(4-methyl-5-(4-((3R,5S)-3,4,5-trimethylpiperazin-1-yl)phenyl)pyridin-3-yl)benzamide] had a CYP inhibition in experiment [1] greater than 50 µM. For the same compound, the “% enzyme activity” value in experiment [2] is listed as 40.52%; in experiment [3] it was 93.52%; in [4] it was 77.64%; in [5], 95.60%; in experiment [6], 96.66%; in experiment [7], 90.22%. Further, the “% enzyme activity” value is recorded as 89.59% in experiment [8] and 105.23% in experiment [9]. For the same compound, the remaining activity at 1 µM in experiment [2] was determined as 41.1%; in experiment [10] it was 100%; in experiment [11] it was 97%; in experiment [12], 96%.
